Measurements published in the NIST ThermoML archive (doi:10.1016/j.jct.2016.01.003).
± gives the expanded uncertainty stated by the source.

Key:
[1] = Crystal
[2] = Molar enthalpy of transition or fusion; conditions: Crystal; DSC

O=C1c2cccc(Cl)c2C(=O)N1c1ccccc1 [3-chloro-N-phenylphthalimide]
mass density ([1]; 298.15 K, 101.33 kPa, flotation method): 1397 ± 2 kg/m3 | Normal melting temperature ([1]; DTA): 192.90 ± 1.1 °C | Molar enthalpy of transition or fusion [2]: 6.96 ± 0.237 kcal/mol
